Consider 3 molecules from the NIST ThermoML archive (doi:10.1016/j.tca.2009.04.012).

For data set [1] the following is noted: for mass density: 298.15 K, 101.33 kPa; for Normal melting temperature: DTA.
The nature of data set [2]: molar heat capacity at constant pressure. Conditions: 298.15 K, 101.33 kPa, Small sample (50 mg) DSC.
A short description of data set [3]: Molar enthalpy of transition or fusion. Conditions: Crystal; DSC.

Numbers after ± are expanded uncertainties.

As to `CC(=O)c1ccco1` [2-acetylfuran], in data set [1] (Crystal), the mass density (in general, mass per unit of volume) was determined as 1098 ± 5 kg/m3 and the Normal melting temperature turned out to be 28.47 ± 0.4 °C. The “molar heat capacity at constant pressure” value in data set [2] (Crystal) was 140.94 ± 6.6 J/K/mol. Further, the “Molar enthalpy of transition or fusion” value in data set [3] turned out to be 3.71 ± 0.165 kcal/mol.
In the case of `CC(=O)c1cccs1` [2-acetylthiophene], in data set [1] (Liquid), the mass density was 1171 ± 5 kg/m3. In addition, the “molar heat capacity at constant pressure” value in data set [2] (Liquid) came to 210.72 ± 10 J/K/mol.
Turning to `CC(=O)c1ccc[nH]1` [2-acetylpyrrole], the Normal melting temperature in data set [1] (Crystal) came to 89.82 ± 0.4 °C. Also, in data set [2] (Crystal), the “molar heat capacity at constant pressure” value turned out to be 132.04 ± 6.5 J/K/mol. Further, the “Molar enthalpy of transition or fusion” value in data set [3] was found to be 3.37 ± 0.263 kcal/mol.
